Data from EP0216646B1, “N,N-dimethylethyl amine oxide derivative, process for its preparation and pharmaceutical compositions obtained” (Albert ROLLAND S.A. Société dite, priority 1985, dated 1987).

Columns and labels:
Assay type in all cases: in vivo
[1] = acute toxicity in the mouse (median lethal dose); conditions: in vivo; acute toxicity, mouse; read-out: dose léthale moyenne
Excerpt: (§1) Les sels de 2,2-bis phénoxy NN-diméthyl éthylamine sont décrits comme possédant des propriétés anti-dépressives.

[2] = yohimbine-induced group toxicity
Excerpt: (§2) Le N-oxyde de 2,2-bis phénoxy NN-diméthyl éthylamine et ses sels possèdent les propriétés caractéristiques des autres anti-dépresseurs, sur les tests pharmacologiques classiques. Ils inhibent l'effet hypothermisant de la réserpine, et de l'apomorphine, ils augmentent la toxicité de groupe induite par injection de yohimbine et ils antagonisent le test du désespoir chez la souris.

[3] = apomorphine test (apomorphine-induced hypothermia)
Excerpt: as §2

[4] = reserpine-induced hypothermia test; conditions: qualitative
Excerpt: as §2

[5] = test system: souris; experiment: despair test in the mouse; conditions: qualitative
Excerpt: as §2

[6] = test system: souris; experiment: acute toxicity in the mouse (median lethal dose)
Excerpt: as §1

[7] = compared with 2,2-bis phénoxy NN-diméthyl éthylamine

SMILES	LD50 [1]	action positive vis-à-vis de la toxicité de groupe à la yohimbine [2, 7]	toxicité de groupe induite par injection de yohimbine ([2]; qualitative)	action antagoniste sur le test à l'apomorphine [3, 7]	effet hypothermisant de l'apomorphine ([3]; qualitative)	effet hypothermisant de la réserpine [4]	test du désespoir chez la souris [5]	dose léthale moyenne ([6]; acute toxicity, mouse)	toxicité ([6]; qualitative statement)
CN(C)CC(Oc1ccccc1)Oc1ccccc1 [2,2-bis phénoxy NN-diméthyl éthylamine, reference compound]	~800 mg/kg	–	–	–	–	–	–	–	–
C[N+](C)([O-])CC(Oc1ccccc1)Oc1ccccc1 [N-oxydede 2,2-bis phénoxy NN-diméthyl éthylamine]	–	nettement plus marquées	augmentent	nettement plus marquées	inhibent	inhibent	antagonisent	il n'a pas été possible de déterminer	très faible
